Legend:
Assay in all cases: KINOMEscan competition binding
Settings in all cases: compound 1.0 µM
TNIK (human) = TNIK (human) (UniProt Q9UKE5)
GAK (human) = GAK (human) (UniProt O14976)
CDC2L2 (human) = CDC2L2 (human) (UniProt Q9UQ88)
FER (human) = FER (human) (UniProt P16591)
DCLK2 (human) = DCLK2 (human) (UniProt Q8N568)
[1] = system: EGFR (human), P00533 [G719S]
DMPK (human) = DMPK (human) (UniProt Q09013)
MAP3K11 (human) = MAP3K11 (human) (UniProt Q16584)
PIM1 (human) = PIM1 (human) (UniProt P11309)
PAK7 (human) = PAK7 (human) (UniProt Q9P286)
CAMK1D (human) = CAMK1D (human) (UniProt Q8IU85)
ADCK4 (human) = ADCK4 (human) (UniProt Q96D53)
INSR (human) = INSR (human) (UniProt P06213)
STK4 (human) = STK4 (human) (UniProt Q13043)
PAK4 (human) = PAK4 (human) (UniProt O96013)
NEK1 (human) = NEK1 (human) (UniProt Q96PY6)
[2] = system: MET (human), P08581 [M1250T]
MAK (human) = MAK (human) (UniProt P20794)
MYLK4 (human) = MYLK4 (human) (UniProt Q86YV6)
CLK1 (human) = CLK1 (human) (UniProt P49759)
MAP3K12 (human) = MAP3K12 (human) (UniProt Q12852)
RPS6KA1 KD1 (human) = RPS6KA1 KD1 (human) (UniProt Q15418)
RPS6KA1 KD2 (human) = RPS6KA1 KD2 (human) (UniProt Q15418)
RAF1 (human) = RAF1 (human) (UniProt P04049)
FGFR1 (human) = FGFR1 (human) (UniProt P11362)
PRKAA2 (human) = PRKAA2 (human) (UniProt P54646)
PTK2B (human) = PTK2B (human) (UniProt Q14289)
NEK2 (human) = NEK2 (human) (UniProt P51955)
MAP3K9 (human) = MAP3K9 (human) (UniProt P80192)
RPS6KA5 KD1 (human) = RPS6KA5 KD1 (human) (UniProt O75582)
AXL (human) = AXL (human) (UniProt P30530)
ERN1 (human) = ERN1 (human) (UniProt O75460)
MAP2K3 (human) = MAP2K3 (human) (UniProt P46734)
MAPK4 (human) = MAPK4 (human) (UniProt P31152)
PKMYT1 (human) = PKMYT1 (human) (UniProt Q99640)
[3] = target: JAK2 JH1 catalytic (human) (UniProt O60674)
RPS6KA3 KD1 (human) = RPS6KA3 KD1 (human) (UniProt P51812)
PRKCH (human) = PRKCH (human) (UniProt P24723)
[4] = system: ABL1 (human), P00519 [H396P]
MAP3K5 (human) = MAP3K5 (human) (UniProt Q99683)
MAP3K5 (human), sequence (Q99683 whole entry, looked up): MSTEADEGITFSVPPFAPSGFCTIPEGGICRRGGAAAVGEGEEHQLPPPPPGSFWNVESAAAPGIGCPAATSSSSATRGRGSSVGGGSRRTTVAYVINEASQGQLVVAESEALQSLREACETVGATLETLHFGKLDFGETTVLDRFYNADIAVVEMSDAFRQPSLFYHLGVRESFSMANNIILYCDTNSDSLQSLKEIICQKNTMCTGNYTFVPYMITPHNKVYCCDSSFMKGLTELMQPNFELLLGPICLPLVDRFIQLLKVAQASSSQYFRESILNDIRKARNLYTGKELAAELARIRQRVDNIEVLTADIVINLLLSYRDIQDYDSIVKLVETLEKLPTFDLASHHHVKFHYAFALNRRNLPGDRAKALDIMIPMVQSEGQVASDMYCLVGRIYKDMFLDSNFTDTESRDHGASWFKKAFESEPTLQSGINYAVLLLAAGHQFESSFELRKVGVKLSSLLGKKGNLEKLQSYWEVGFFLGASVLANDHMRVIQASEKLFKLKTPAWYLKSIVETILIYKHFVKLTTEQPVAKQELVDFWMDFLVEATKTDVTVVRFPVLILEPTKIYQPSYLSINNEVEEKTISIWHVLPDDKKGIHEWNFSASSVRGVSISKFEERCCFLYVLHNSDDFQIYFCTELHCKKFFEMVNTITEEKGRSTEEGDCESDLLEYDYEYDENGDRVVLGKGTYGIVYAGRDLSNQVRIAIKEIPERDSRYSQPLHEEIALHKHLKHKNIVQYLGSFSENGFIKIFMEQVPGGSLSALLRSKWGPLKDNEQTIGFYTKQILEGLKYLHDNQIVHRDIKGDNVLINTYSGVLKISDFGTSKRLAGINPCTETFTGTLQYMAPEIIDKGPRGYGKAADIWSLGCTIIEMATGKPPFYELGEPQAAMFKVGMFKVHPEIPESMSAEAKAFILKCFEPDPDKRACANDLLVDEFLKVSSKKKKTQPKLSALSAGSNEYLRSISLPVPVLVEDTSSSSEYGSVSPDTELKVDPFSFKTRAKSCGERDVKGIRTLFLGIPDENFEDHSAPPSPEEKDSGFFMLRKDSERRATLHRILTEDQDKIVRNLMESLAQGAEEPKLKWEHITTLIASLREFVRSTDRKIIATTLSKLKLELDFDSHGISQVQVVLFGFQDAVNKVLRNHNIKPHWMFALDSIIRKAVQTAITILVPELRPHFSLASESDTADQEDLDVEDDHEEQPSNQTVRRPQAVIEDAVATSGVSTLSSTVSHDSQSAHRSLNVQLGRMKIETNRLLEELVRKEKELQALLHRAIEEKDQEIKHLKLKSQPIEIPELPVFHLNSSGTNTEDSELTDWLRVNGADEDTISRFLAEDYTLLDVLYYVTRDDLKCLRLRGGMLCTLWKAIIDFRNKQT

PIM1 (human), sequence (P11309 whole entry, looked up): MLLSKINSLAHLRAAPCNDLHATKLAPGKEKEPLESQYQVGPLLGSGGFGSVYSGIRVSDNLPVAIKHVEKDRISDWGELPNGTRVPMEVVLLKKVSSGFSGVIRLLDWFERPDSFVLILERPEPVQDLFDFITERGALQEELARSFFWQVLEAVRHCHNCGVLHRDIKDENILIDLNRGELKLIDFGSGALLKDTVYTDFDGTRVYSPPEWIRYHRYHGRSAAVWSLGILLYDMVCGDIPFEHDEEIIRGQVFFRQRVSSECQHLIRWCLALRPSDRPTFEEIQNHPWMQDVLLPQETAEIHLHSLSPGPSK
MAP3K11 (human), sequence (Q16584 whole entry, looked up): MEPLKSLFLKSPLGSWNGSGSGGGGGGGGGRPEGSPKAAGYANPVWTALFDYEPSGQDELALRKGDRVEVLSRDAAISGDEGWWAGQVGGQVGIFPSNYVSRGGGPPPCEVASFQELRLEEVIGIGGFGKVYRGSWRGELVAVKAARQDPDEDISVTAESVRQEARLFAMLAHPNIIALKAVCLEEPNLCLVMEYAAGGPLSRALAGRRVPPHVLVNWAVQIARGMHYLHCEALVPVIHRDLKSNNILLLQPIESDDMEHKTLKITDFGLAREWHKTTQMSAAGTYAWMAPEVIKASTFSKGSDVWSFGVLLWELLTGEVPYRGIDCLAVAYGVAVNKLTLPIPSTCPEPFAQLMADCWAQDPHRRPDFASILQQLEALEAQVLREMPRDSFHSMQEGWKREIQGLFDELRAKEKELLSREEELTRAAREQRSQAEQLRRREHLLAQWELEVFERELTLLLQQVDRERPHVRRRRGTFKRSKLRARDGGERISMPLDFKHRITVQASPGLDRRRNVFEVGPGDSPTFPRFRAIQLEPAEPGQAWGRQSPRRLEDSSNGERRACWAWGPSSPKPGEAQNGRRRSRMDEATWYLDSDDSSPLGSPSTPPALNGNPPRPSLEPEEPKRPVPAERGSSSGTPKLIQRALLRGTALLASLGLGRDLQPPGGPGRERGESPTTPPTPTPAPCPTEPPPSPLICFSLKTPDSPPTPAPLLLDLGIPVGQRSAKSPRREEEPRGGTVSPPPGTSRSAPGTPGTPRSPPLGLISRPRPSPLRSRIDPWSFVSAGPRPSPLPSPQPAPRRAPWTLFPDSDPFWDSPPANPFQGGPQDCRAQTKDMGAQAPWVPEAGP
STK4 (human), sequence (Q13043 whole entry, looked up): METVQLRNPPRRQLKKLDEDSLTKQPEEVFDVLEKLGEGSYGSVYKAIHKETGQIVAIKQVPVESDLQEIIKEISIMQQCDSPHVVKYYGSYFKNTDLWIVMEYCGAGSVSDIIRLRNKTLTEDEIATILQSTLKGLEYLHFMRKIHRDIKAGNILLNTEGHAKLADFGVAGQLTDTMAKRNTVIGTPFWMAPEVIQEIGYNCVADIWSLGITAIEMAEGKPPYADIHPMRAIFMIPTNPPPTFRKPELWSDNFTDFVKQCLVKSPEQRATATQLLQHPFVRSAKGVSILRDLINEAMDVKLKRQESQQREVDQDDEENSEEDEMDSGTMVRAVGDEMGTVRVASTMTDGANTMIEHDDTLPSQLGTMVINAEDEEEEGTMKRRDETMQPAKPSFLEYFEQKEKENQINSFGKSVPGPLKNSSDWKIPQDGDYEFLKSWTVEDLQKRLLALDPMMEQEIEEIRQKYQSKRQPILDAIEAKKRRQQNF
MAP3K9 (human), sequence (P80192 whole entry, looked up): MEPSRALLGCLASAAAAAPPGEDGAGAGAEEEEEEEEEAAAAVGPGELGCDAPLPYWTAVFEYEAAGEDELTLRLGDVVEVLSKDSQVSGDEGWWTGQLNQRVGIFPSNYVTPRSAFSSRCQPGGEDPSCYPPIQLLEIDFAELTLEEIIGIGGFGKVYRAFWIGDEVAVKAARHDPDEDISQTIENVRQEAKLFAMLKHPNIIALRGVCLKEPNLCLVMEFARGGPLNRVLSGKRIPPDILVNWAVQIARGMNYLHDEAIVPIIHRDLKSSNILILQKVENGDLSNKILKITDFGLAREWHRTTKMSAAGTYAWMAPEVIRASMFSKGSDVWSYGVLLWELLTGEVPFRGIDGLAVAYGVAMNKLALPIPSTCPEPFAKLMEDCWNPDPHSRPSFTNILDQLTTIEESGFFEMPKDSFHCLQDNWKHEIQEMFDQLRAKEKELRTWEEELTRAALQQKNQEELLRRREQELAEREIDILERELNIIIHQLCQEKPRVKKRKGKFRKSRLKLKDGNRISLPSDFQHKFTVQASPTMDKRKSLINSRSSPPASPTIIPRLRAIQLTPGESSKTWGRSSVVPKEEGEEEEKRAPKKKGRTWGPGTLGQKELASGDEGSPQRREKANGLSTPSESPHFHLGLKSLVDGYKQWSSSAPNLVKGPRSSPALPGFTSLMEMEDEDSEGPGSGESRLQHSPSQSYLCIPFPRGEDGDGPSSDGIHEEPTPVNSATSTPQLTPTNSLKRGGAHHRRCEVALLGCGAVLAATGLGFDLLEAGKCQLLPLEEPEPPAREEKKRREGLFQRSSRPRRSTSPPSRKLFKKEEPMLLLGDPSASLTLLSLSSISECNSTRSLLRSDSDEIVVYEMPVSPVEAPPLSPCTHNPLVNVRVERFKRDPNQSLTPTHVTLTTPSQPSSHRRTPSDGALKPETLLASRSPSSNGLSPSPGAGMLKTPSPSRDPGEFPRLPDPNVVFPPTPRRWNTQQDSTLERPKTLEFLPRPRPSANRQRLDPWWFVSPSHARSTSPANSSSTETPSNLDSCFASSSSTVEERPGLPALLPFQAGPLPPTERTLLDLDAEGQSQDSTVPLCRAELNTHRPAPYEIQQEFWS
PRKCH (human), sequence (P24723 whole entry, looked up): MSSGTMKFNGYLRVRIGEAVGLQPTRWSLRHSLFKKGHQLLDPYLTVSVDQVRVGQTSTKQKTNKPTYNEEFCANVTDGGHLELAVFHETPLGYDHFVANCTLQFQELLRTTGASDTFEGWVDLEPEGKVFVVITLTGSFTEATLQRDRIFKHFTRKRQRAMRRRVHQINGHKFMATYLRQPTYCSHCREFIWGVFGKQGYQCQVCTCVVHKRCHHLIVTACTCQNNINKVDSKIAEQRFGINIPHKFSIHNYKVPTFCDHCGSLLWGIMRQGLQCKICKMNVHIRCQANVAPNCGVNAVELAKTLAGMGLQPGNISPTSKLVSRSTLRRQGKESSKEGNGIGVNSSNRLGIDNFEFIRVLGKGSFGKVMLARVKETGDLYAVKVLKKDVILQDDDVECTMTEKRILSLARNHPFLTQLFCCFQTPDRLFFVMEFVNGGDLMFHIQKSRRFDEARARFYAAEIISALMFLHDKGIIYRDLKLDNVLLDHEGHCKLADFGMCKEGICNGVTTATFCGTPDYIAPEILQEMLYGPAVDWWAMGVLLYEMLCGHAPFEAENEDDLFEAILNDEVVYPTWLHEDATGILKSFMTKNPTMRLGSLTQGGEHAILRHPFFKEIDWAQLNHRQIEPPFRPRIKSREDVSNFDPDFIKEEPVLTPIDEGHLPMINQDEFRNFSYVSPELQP

Q: `Nc1cc(C(F)(F)F)c(-c2cc(N3CCOCC3)nc(N3CCOCC3)n2)cn1` was tested. Which inhibition of binding (TNIK (human)) did it give?
A: The inhibition of binding was 1%.

Q: And the inhibition of binding (GAK (human))?
A: Its inhibition of binding is 6%.

Q: What about the inhibition of binding (CDC2L2 (human)) of the same compound?
A: The inhibition of binding was 19%.

Q: What about the inhibition of binding (FER (human)) of the same compound?
A: The inhibition of binding was 0%.

Q: And the inhibition of binding (DCLK2 (human))?
A: Its inhibition of binding is 30%.

Q: And the inhibition of binding [1]?
A: Its inhibition of binding is 10%.

Q: What about the inhibition of binding (DMPK (human)) of the same compound?
A: Its inhibition of binding is 0%.

Q: What about the inhibition of binding (MAP3K11 (human)) of the same compound?
A: Its inhibition of binding is 0%.

Q: What about the inhibition of binding (PIM1 (human)) of the same compound?
A: The inhibition of binding was 2%.

Q: What about the inhibition of binding (PAK7 (human)) of the same compound?
A: Its inhibition of binding is 0%.

Q: And the inhibition of binding (CAMK1D (human))?
A: The inhibition of binding was 0%.

Q: What about the inhibition of binding (ADCK4 (human)) of the same compound?
A: The inhibition of binding was 0%.

Q: What about the inhibition of binding (INSR (human)) of the same compound?
A: Its inhibition of binding is 30%.

Q: What about the inhibition of binding (STK4 (human)) of the same compound?
A: Its inhibition of binding is 0%.

Q: And the inhibition of binding (PAK4 (human))?
A: Its inhibition of binding is 13%.

Q: And the inhibition of binding (NEK1 (human))?
A: Its inhibition of binding is 15%.

Q: What about the inhibition of binding [2] of the same compound?
A: Its inhibition of binding is 20%.

Q: What about the inhibition of binding (MAK (human)) of the same compound?
A: Its inhibition of binding is 0%.

Q: And the inhibition of binding (MYLK4 (human))?
A: The inhibition of binding was 0%.

Q: And the inhibition of binding (CLK1 (human))?
A: Its inhibition of binding is 58%.

Q: And the inhibition of binding (MAP3K12 (human))?
A: The inhibition of binding was 0%.

Q: And the inhibition of binding (RPS6KA1 KD1 (human))?
A: The inhibition of binding was 0%.

Q: And the inhibition of binding (RPS6KA1 KD2 (human))?
A: The inhibition of binding was 23%.

Q: What about the inhibition of binding (RAF1 (human)) of the same compound?
A: Its inhibition of binding is 7%.

Q: And the inhibition of binding (FGFR1 (human))?
A: The inhibition of binding was 0%.

Q: What about the inhibition of binding (PRKAA2 (human)) of the same compound?
A: Its inhibition of binding is 0%.

Q: What about the inhibition of binding (PTK2B (human)) of the same compound?
A: Its inhibition of binding is 0%.

Q: And the inhibition of binding (NEK2 (human))?
A: Its inhibition of binding is 0%.

Q: And the inhibition of binding (MAP3K9 (human))?
A: Its inhibition of binding is 18%.

Q: And the inhibition of binding (RPS6KA5 KD1 (human))?
A: The inhibition of binding was 0%.

Q: And the inhibition of binding (AXL (human))?
A: The inhibition of binding was 7%.

Q: What about the inhibition of binding (ERN1 (human)) of the same compound?
A: The inhibition of binding was 5%.

Q: And the inhibition of binding (MAP2K3 (human))?
A: The inhibition of binding was 0%.

Q: What about the inhibition of binding (MAPK4 (human)) of the same compound?
A: The inhibition of binding was 0%.

Q: And the inhibition of binding (PKMYT1 (human))?
A: The inhibition of binding was 0%.

Q: What about the inhibition of binding [3] of the same compound?
A: Its inhibition of binding is 12%.

Q: And the inhibition of binding (RPS6KA3 KD1 (human))?
A: Its inhibition of binding is 0%.

Q: And the inhibition of binding (PRKCH (human))?
A: The inhibition of binding was 0%.

Q: And the inhibition of binding [4]?
A: The inhibition of binding was 0%.

Q: And the inhibition of binding (MAP3K5 (human))?
A: The inhibition of binding was 1%.

Source: the kinase profiling compilation of Christmann-Franck et al. (2016)
